Test results from the OligoGym collection.
Bases are written 5' to 3'; sugars and linkages follow in the same order, as letters with counts (s phosphorothioate, o phosphodiester; PS: all linkages phosphorothioate). The collection does not say whether C is 5-methylated. l = locked nucleic acid (LNA); d = 2'-deoxy (DNA)

Target: Tau
Experiment: rat primary cortical neurons, FLIPR, 25 uM ASO

Sequence | calcium oscillation score
ATCAGAGGTTTCAGAG (sugars l3 d10 l3, PS) | 0 % of control
ATCAGCCTTCATCACACT (sugars l4 d12 l2, PS) | 87.7 % of control
ATCAGTCTTATCTCCCA (sugars l3 d12 l2, PS) | 49.2 % of control
ATCATAATCCTACCACCA (sugars l3 d13 l2, PS) | 87.5 % of control
ATCATATCCTAAGCAT (sugars l3 d9 l4, PS) | 60.1 % of control
ATCATTTTTTATTCATAACT (sugars l4 d12 l4, PS) | 53.4 % of control
ATCCAAGTCAATGCCTGGCT (sugars l3 d14 l3, PS) | 34.2 % of control
ATCCAGCCATATTTCAACTC (sugars l3 d14 l3, PS) | 28.2 % of control
ATCCATTAATTTAGCC (sugars l3 d10 l3, PS) | 76.7 % of control
ATCCTAAGTCAACCACA (sugars l2 d11 l4, PS) | 69 % of control
ATCCTGGTGGCGTTGGCCTG (sugars l3 d14 l3, PS) | 0 % of control
ATCCTTCTAAGTACAA (sugars l4 d8 l4, PS) | 85.6 % of control
ATCGCTTCCAGTCC (sugars l3 d8 l3, PS) | 29.9 % of control
ATCTCAAGTCTTATTCT (sugars l4 d9 l4, PS) | 48.8 % of control
ATCTTAATTCATTTAATTCT (sugars l4 d12 l4, PS) | 93.1 % of control
ATCTTAGGCTGGCCC (sugars l3 d9 l3, PS) | 50.6 % of control
ATCTTATTGCTTTCCAA (sugars l4 d10 l3, PS) | 75.3 % of control
ATCTTCGACTGGACTC (sugars l3 d10 l3, PS) | 59.7 % of control
ATGACATTTTAAACCCC (sugars l3 d11 l3, PS) | 54.9 % of control
ATGACCTCAACTCTACCT (sugars l3 d13 l2, PS) | 61 % of control
ATGAGCACTAACTCTAAGTA (sugars l3 d14 l3, PS) | 4.76 % of control
ATGAGCCACACTTGGAGGTC (sugars l3 d14 l3, PS) | 19.9 % of control
ATGATGGATGTTGCCT (sugars l3 d10 l3, PS) | 0 % of control
ATGATGGATGTTGCCTAATG (sugars l3 d14 l3, PS) | 0 % of control
ATGATTAATTACACCCC (sugars l3 d11 l3, PS) | 8.2 % of control
ATGATTGTGGGCTTA (sugars l3 d9 l3, PS) | 7.83 % of control
ATGATTGTGGGCTTAG (sugars l3 d10 l3, PS) | 24.4 % of control

Sequence | calcium oscillation score
ATGCAGGAGTTGTAAG (sugars l3 d10 l3, PS) | 40.8 % of control
ATGCTTACACACCACA (sugars l2 d10 l4, PS) | 88.5 % of control
ATGGATGTTGCCTAATGAGC (sugars l3 d14 l3, PS) | 0 % of control
ATGTCGATGCTGCC (sugars l3 d8 l3, PS) | 137 % of control
ATGTCGATGCTGCCGG (sugars l3 d10 l3, PS) | 0 % of control
ATGTTGCCTAATGAGC (sugars l3 d10 l3, PS) | 69 % of control
ATGTTGCCTAATGAGCCACA (sugars l3 d14 l3, PS) | 31.6 % of control
ATGTTTTTTAACTCCCA (sugars l3 d11 l3, PS) | 83.5 % of control
ATTAACATATTTTTACCTA (sugars l4 d11 l4, PS) | 65.3 % of control
ATTAACCAATTAACCG (sugars l3 d10 l3, PS) | 103 % of control
ATTAACCAATTAACCGAACT (sugars l3 d14 l3, PS) | 45.2 % of control
ATTAACCCTTGATCATATTT (sugars l3 d14 l3, PS) | 40.5 % of control
ATTAACCGAACTGCGA (sugars l3 d10 l3, PS) | 10.9 % of control
ATTAATTACACCCCTG (sugars l3 d9 l4, PS) | 5.47 % of control
ATTAATTATCTGCACCT (sugars l4 d10 l3, PS) | 24.7 % of control
ATTAATTATTAAATCTTCT (sugars l4 d11 l4, PS) | 63.9 % of control
ATTAATTATTAAATCTTCTC (sugars l4 d12 l4, PS) | 72.6 % of control
ATTATCATCCATTCTGA (sugars l2 d11 l4, PS) | 45.6 % of control
ATTATTCTTTTTTTTTCCAC (sugars l3 d14 l3, PS) | 15.2 % of control
ATTATTTACACTGTCCT (sugars l2 d11 l4, PS) | 78.1 % of control
ATTCACACAACAAACTATT (sugars l4 d11 l4, PS) | 74.5 % of control
ATTCATAAATGACTATACTT (sugars l3 d14 l3, PS) | 68.5 % of control
ATTCATTTTACTTTACTTT (sugars l4 d11 l4, PS) | 64.6 % of control
ATTCATTTTACTTTACTTTT (sugars l4 d12 l4, PS) | 88.6 % of control
ATTCCACACATAAACAAACA (sugars l4 d12 l4, PS) | 63.8 % of control
ATTCCCAAATTCCTCATAAT (sugars l4 d14 l2, PS) | 58.6 % of control
ATTCCTTTCAATGACCA (sugars l4 d11 l2, PS) | 49.7 % of control

Sequence | calcium oscillation score
ATTCTCAGCACACCATT (sugars l4 d11 l2, PS) | 41.3 % of control
ATTGCAACTTTAACTCC (sugars l3 d10 l4, PS) | 62.9 % of control
ATTGTCCAGGGACCCAATCT (sugars l3 d14 l3, PS) | 50.9 % of control
ATTTAATTTATTTTTTACT (sugars l4 d11 l4, PS) | 60.1 % of control
ATTTAATTTATTTTTTACTT (sugars l4 d12 l4, PS) | 50.1 % of control
ATTTAGTCACCATCACT (sugars l3 d10 l4, PS) | 102 % of control
ATTTAGTTACTCATCC (sugars l4 d8 l4, PS) | 72.6 % of control
ATTTAGTTTTCCCACCC (sugars l2 d13 l2, PS) | 63.4 % of control
ATTTAGTTTTCCCACCCA (sugars l1 d15 l2, PS) | 48 % of control
ATTTATTAATTCATAAATGA (sugars l3 d14 l3, PS) | 46.3 % of control
ATTTATTCCATTGCTCT (sugars l2 d11 l4, PS) | 42.4 % of control
ATTTATTCTTTTTATTATTT (sugars l4 d12 l4, PS) | 59.6 % of control
ATTTCAGAGCAAAGTGACCC (sugars l3 d14 l3, PS) | 74.5 % of control
ATTTCCAAATTCACTT (sugars l3 d10 l3, PS) | 111 % of control
ATTTCCAAATTCACTTTTAC (sugars l1 d17 l2, PS) | ≥ 200 % of control
ATTTCCAAATTCACTTTTAC (sugars l2 d1 l2 d11 l4, PS) | 147 % of control
ATTTCCAAATTCACTTTTAC (sugars l2 d16 l2, PS) | ≥ 200 % of control
ATTTCCAAATTCACTTTTAC (sugars l3 d14 l3, PS) | ≥ 200 % of control
ATTTCCAAATTCACTTTTAC (sugars l4 d10 l2 d2 l2, PS) | 137 % of control
ATTTCCAAATTCACTTTTAC (sugars l4 d11 l5, PS) | 136 % of control
ATTTCCAAATTCACTTTTAC (sugars l5 d10 l5, PS) | ≥ 200 % of control
ATTTCCAAATTCACTTTTAC (sugars l5 d11 l4, PS) | 78.8 % of control
ATTTCCAAATTCACTTTTAC (sugars ldlllddddddddddlldll, PS) | 143 % of control
ATTTCCAAATTCACTTTTAC (sugars llddldldddddddddllll, PS) | 143 % of control
ATTTCCAAATTCACTTTTAC (sugars llddlldddddddddldlll, PS) | 112 % of control
ATTTCCAAATTCACTTTTAC (sugars llddlldddddddddlldll, PS) | 122 % of control
ATTTCCAAATTCACTTTTAC (sugars lldldldddddddddldlll, PS) | 122 % of control

Sequence | calcium oscillation score
ATTTCCAAATTCACTTTTAC (sugars lldllddddddddddlldll, PS) | 85.2 % of control
ATTTCCAAATTCACTTTTAC (sugars lldlldddddddddlddlll, PS) | 35.4 % of control
ATTTCCAAATTCACTTTTAC (sugars lldlldddddddddldldll, PS) | 83 % of control
ATTTCCAAATTCACTTTTAC (sugars lldlldddddddddllddll, PS) | 120 % of control
ATTTCCAAATTCACTTTTAC (sugars lllddldddddddddldlll, PS) | 125 % of control
ATTTCCAAATTCACTTTTAC (sugars lllddldddddddddlldll, PS) | 110 % of control
ATTTCCAAATTCACTTTTAC (sugars llldlddddddddddldlll, PS) | 135 % of control
ATTTCCAAATTCACTTTTAC (sugars llldldddddddddlddlll, PS) | 118 % of control
ATTTCCAAATTCACTTTTAC (sugars llldldddddddddldldll, PS) | 123 % of control
ATTTCCAAATTCACTTTTAC (sugars llldldddddddddllddll, PS) | 131 % of control
ATTTCCAAATTCACTTTTAC (sugars lllldddddddddlddldll, PS) | 110 % of control
ATTTCCAAATTCACTTTTAC (sugars lllldddddddddldlddll, PS) | 137 % of control
ATTTCTCTAATTGTCCA (sugars l4 d10 l3, PS) | 46.8 % of control
ATTTGGAAAGATGAAATTTG (sugars l3 d14 l3, PS) | 0 % of control
ATTTTACTACTCTCTTT (sugars l4 d9 l4, PS) | 82 % of control
ATTTTACTACTCTCTTTT (sugars l4 d10 l4, PS) | 75 % of control
ATTTTACTACTCTCTTTTC (sugars l4 d11 l4, PS) | 70.6 % of control
ATTTTACTACTCTCTTTTCT (sugars l3 d14 l3, PS) | 68 % of control
ATTTTTACCAATTTGCC (sugars l2 d11 l4, PS) | 57 % of control
CAAAACATTCTCACCAAACC (sugars l4 d14 l2, PS) | 84.8 % of control
CAAAATCCTTAATTTAACCA (sugars l4 d12 l4, PS) | 60.6 % of control
CAAACAATCCATTTATATT (sugars l4 d11 l4, PS) | 69.3 % of control
CAAACAATCCATTTATATTC (sugars l4 d12 l4, PS) | 55.5 % of control
CAAACAGGATACAGT (sugars l3 d9 l3, PS) | 49.6 % of control
